Assay results published in patent publication US6906205B2, “Spiro and dispiro 1,2,4-trioxolane antimalarials” (Medicines for Malaria Venture MMV, priority 2002, dated 2005).
In brackets after ≈: the same amount, converted by molar mass.

Columns and labels:
[1] = system: ANKA strain of P. berghei; test: single dose STI in vivo screen in infected mice; design: species or system Plasmodium berghei
Method in brief: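 Groups of 3-5 Moro SPF or NMRI mice infected with the ANKA strain of P. berghei received a single dose of trioxolane on day one post-infection. The compound was given in 3% ethanol and 7% Tween 80 or in SSV (0.5% w/v CMC, 0.5% v/v benzyl alcohol, 0.4% v/v Tween 80, 0.9% w/v sodium chloride in water). Antimalarial activity was scored as percent reduction in parasitemia on day three and as survival time versus untreated controls. Survival to day 30 counted as cure.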

[2] = system: parasitemia (malaria infection); test: onset of action and recrudescence experiments; format: in vivo; conditions: single 100 mg/kg po (SSV) on day +3 post-infection; recrudescence = >5% parasitemia; followed up to 60 days; (n/5) = animals
Description: The onset of drug action was determined after a single fixed dose of 100 mg/kg (SSV vehicle) po to groups of five animals on day +3 post-infection (day 0).

[3] = system: P. falciparum K1 strain (Thailand resistant to chloroquine); test: semiautomated microdilution assay, [3H]-hypoxanthine incorporation, K1 strain; format: cell-based, Plasmodium falciparum; conditions: K1 strain, 72 h incubation
Method in brief: (§1)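 Asynchronous stock cultures → intraerythrocytic forms; semiautomated microdilution; IC50 by logit regression.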

[4] = system: Schistosoma mansoni adult schistosomes (49-day-old); test: effect on adult schistosomes (49-day-old) in mice; format: in vivo; conditions: for % reduction of adult worms growth at day 49 after per os application of 400 mg/kg, TWR (%) / adult worms at day 49, per os 400 mg/kg, DEAD WORM (%): single 400 mg/kg per os; for % reduction of adult worms growth at day 49 after per os application of 600 mg/kg, TWR (%) / adult worms at day 49, per os 600 mg/kg, DEAD WORM (%): single 600 mg/kg per os
Description: Mice were infected with 100 Schistosoma mansoni cercariae […]. Each group was treated per os with OZ compounds at single doses of 200, 400, and 600 mg/kg. […] All groups were killed 4 weeks after treatment and the liver and intestine were removed and separated. The liver and intestine were compressed and alive male and female worms could be seen and counted.

[5] = system: P. falciparum NF54 strain (sensitive to standard antimalarials); test: semiautomated microdilution assay, [3H]-hypoxanthine incorporation, NF54 strain; format: cell-based, Plasmodium falciparum; conditions: for IC50 (ng/ml) NF54: NF54 strain, 72 h incubation
Method in brief: as §1

Schistosoma japonicum = test: effect in mice infected with Schistosoma japonicum; format: in vivo; conditions: for MFWB/x ± SD (mean female worm burden): control 11.6 ± 2.4; for MTWB/x ± SD (mean total worm burden): control 26.6 ± 4.2
[6] = system: ANKA strain of Plasmodium berghei; test: single dose ED50/ED90/ED99 determinations in infected mice; format: in vivo; conditions: single dose po in SSV, mice, percent reduction in parasitemia on day three post-infection
Method in brief: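 Mice (Moro SPF or NMRI, n=3 per group) infected with P. berghei ANKA received a single dose on day 1 post-infection, vehicle 0.5% CMC/0.5% benzyl alcohol/0.4% Tween 80/0.9% NaCl in water. Read-out is percent reduction in parasitemia on day 3; ED values by nonlinear fitting.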

P. falciparum = test: in vitro potency against P. falciparum (strain not stated); format: cell-based; conditions: Plasmodium falciparum
neuroblastoma cell line = test: toxicity in a neuroblastoma cell line; format: cell-based
[7] = Rane test, single 640 mg/kg doses in mice; format: in vivo
dosing in dogs = format: in vivo; conditions: dog
Description: (§2) Artesunate is listed as a reference compound.

dosing in rats = format: in vivo; conditions: rat
Description: as §2

[8] = system: Schistosoma mansoni 21-day-old schistosomules; test: effect on 21-day-old schistosomules in mice; format: in vivo; conditions: single 200 mg/kg per os, female mice
Description: All groups were killed 4 weeks after treatment and the liver and intestine were removed and separated. The liver and intestine were compressed and alive male and female worms could be seen and counted. The effect of the compounds was evaluated by mean total and female worm burden.

[9] = system: Schistosoma mansoni adult schistosomes (49-day-old); test: effect on adult schistosomes (49-day-old) in mice; format: in vivo; conditions: 1 × 600 mg/kg sc.
[10] = age of worm 7 days, 200 mg/kg x 1
[11] = age of worm 35 days, 200 mg/kg x 1
[12] = age of worm 35 days, 400 mg/kg x 1

## Cc1ccc(S(=O)(=O)O)cc1.NC[C@H]1CC[C@]2(CC1)OOC1(O2)C2CC3CC(C2)CC1C3 (some centres unmarked) [OZ207]
[1]; percent reduction in parasitemia day 3 post-infection, single 10 mg/kg po in 3% ethanol and 7% Tween 80, mice
  Activity (%) po: 99.96%
[1]; percent reduction in parasitemia day 3 post-infection, single 10 mg/kg sc in 3% ethanol and 7% Tween 80, mice
  Activity (%) sc: 99.98%
[1]; percent reduction in parasitemia day 3 post-infection, single po dose in standard suspending vehicle (SSV), mice
  Activity (%) SSVpo: 99.98%
[1]; single 10 mg/kg po in 3% ethanol and 7% Tween 80, untreated control 5.6 ± 0.3
  Survival (days) po: 9.3 days
[1]; single 10 mg/kg sc in 3% ethanol and 7% Tween 80, untreated control 5.6 ± 0.3
  Survival (days) sc: 11.3 days
[1]; single po dose in SSV, untreated control 5.6 ± 0.3
  Survival (days) SSVpo: 12.0 days
[2]
  Time of Recrudescence (days): no recrudescence
[3]
  IC50 (ng/ml) K1: 0.33 ng/mL
[4]; 600 mg/kg per os, infected mice
  Tox (mice): Tox: ++2/5
[4]; single 200 mg/kg per os
  % reduction of adult worms growth at day 49 after per os application of 200 mg/kg, TWR (%): 32%
  adult worms at day 49, per os 200 mg/kg, DEAD WORM (%): 17%
[4]
  % reduction of adult worms growth at day 49 after per os application of 400 mg/kg, TWR (%): 35%
  adult worms at day 49, per os 400 mg/kg, DEAD WORM (%): 21%
  % reduction of adult worms growth at day 49 after per os application of 600 mg/kg, TWR (%): 11%
  adult worms at day 49, per os 600 mg/kg, DEAD WORM (%): 24%
[5]
  IC50 (ng/ml) NF54: 0.57 ng/mL
Schistosoma japonicum; [10]
  Mice without ♀ worm: 0/8
  MFWB/x ± SD (mean female worm burden): 2.1 ± 1.0
  MTWB/x ± SD (mean total worm burden): 5.4 ± 2.4
Schistosoma japonicum; [11]
  FWRR/% (female worm reduction rate): 95%
  Mice without ♀ worm: 4/7
  WRR/% (worm reduction rate): 66%
  MFWB/x ± SD (mean female worm burden): 0.6 ± 0.7
  MTWB/x ± SD (mean total worm burden): 9.1 ± 3.9
Schistosoma japonicum; [12]
  FWRR/% (female worm reduction rate): 94%
  Mice without ♀ worm: 4/6
  MFWB/x ± SD (mean female worm burden): 0.7 ± 1.2
  MTWB/x ± SD (mean total worm burden): 4.3 ± 1.2
[6]
  ED50: 0.37 mg/kg
  ED90: 1.2 mg/kg
  ED99: 3.0 mg/kg

## C1CCC2(CC1)OOC1(O2)C2CC3CC(C2)CC1C3 (centres unmarked) [OZ03]
P. falciparum
  IC50: 1 to 5 ng/mL (≈ 3.78 to 18.9 nM)
Neuroblastoma cell line
  toxicity in a neuroblastoma cell line: no toxicity
[7]
  toxicity at single 640 mg/kg doses in mice in the Rane test: no toxicity
[5]; Plasmodium falciparum, NF54, 72 h, read-out: IC50 (ng/ml) NF54
  IC50: 1.6 ng/mL (≈ 6.05 nM)

## Cc1ccc(S(=O)(=O)O)cc1.O=C(C[C@H]1CC[C@]2(CC1)OO[C@]1(O2)C2CC3CC(C2)CC1C3)N1CCNCC1 [OZ279]
[1]; single 3 mg/kg po in SSV
  Survival (days) 3 mg/kg SSV po: 8.4 days
[1]; single 10 mg/kg po in SSV
  Survival (days) 10 mg/kg SSV po: 9.3 days
[2]
  Time of Recrudescence: 15.0 days
Dosing in dogs; IV 10 mg/kg
  IV t1/2 (10 mg/kg): 177.5 min
Dosing in dogs; oral 10 mg/kg
  Oral t1/2 (10 mg/kg): 195.3 min
Dosing in dogs; oral 10 mg/kg, OZ 279, OZ 256, OZ 209 values flagged (V)
  Oral Bioavailability 10 mg/kg: 32.8%
Dosing in dogs; oral 25 mg/kg, OZ 279, OZ 256, OZ 209 values flagged (V)
  Oral Bioavailability 25 mg/kg: 55.7%
[3]
  IC50 (ng/ml) K1: 0.21 ng/mL
[4]
  % reduction of adult worms growth at day 49 after per os application of 400 mg/kg, TWR (%): 0%
  adult worms at day 49, per os 400 mg/kg, DEAD WORM (%): 12%
  % reduction of adult worms growth at day 49 after per os application of 600 mg/kg, TWR (%): 33%
  adult worms at day 49, per os 600 mg/kg, DEAD WORM (%): 20%
Dosing in rats; IV 10 mg/kg
  IV t1/2 (10 mg/kg): 100.5 min
Dosing in rats; oral 10 mg/kg
  Oral Bioavailability 10 mg/kg: 37.2%
Dosing in rats; oral 25 mg/kg
  Oral Bioavailability 25 mg/kg: 71.1%
  Oral t1/2 (25 mg/kg): 166.8 min
[5]
  IC50 (ng/ml) NF54: 0.24 ng/mL
[8]
  % reduction of schistosomule growth at day 21 after per os application of 200 mg/kg, FWR (%): 88%
  % reduction of schistosomule growth at day 21 after per os application of 200 mg/kg, TWR (%): 86%
[9]
  % reduction of adult worms growth, 1 × 600 sc., TWR (%): 21%
  adult worms, 1 × 600 sc., DEAD WORM (%): 27%
[6]
  ED50: 0.63 mg/kg
  ED90: 1.8 mg/kg
  ED99: 3.9 mg/kg
